Source: PubChem BioAssay (NCI)
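Method: 48-hour compound exposure of cells in 96-well plates, five concentrations, linear interpolation of endpoints. GI50 marks 50% less growth. TGI: concentration producing complete growth inhibition.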

Legend:
Experiment in all cases: NCI anticancer screen, dose series, 48 h
[1] = system: 786-0 renal
[2] = system: CCRF-CEM leukemia
[3] = system: COLO 205 colon
[4] = system: KM12 colon
[5] = system: LOX IMVI melanoma
[6] = system: OVCAR-4 ovarian
[7] = system: SF-295 CNS
[8] = system: SNB-75 CNS
[9] = system: HS 578T breast
[10] = system: T-47D breast
[11] = system: MDA-N

| Compound | TGI [1] [µM] | TGI [2] [µM] | TGI [3] [µM] | TGI [4] [µM] | TGI [5] [µM] | TGI [6] [µM] | TGI [7] [µM] | TGI [8] [µM] | GI50 [3] [µM] | TGI [9] [µM] | TGI [10] [µM] | TGI [11] [µM] | GI50 [2] [µM] | GI50 [9] [µM] | GI50 [4] [µM] | GI50 [5] [µM] | GI50 [6] [µM] | GI50 [7] [µM] | GI50 [8] [µM] | GI50 [10] [µM] |
| --- | --- | --- | --- | --- | --- | --- | --- | --- | --- | --- | --- | --- | --- | --- | --- | --- | --- | --- | --- | --- |
| CN1C(c2ccccc2)CC(O)CC1c1ccccc1 (centres undefined) | > 100 | > 100 | > 100 | > 100 | > 100 | > 100 | > 100 | > 100 | – | – | – | – | – | – | – | – | – | – | – | – |
| COc1cccc(/C=N/[N-]C(N)=O)c1[O-].[Cu+2].[OH3+] | 30.3 | – | > 100 | 28 | 30.6 | 32.3 | 28.9 | 25.1 | 9.49 | – | – | – | – | – | – | – | – | – | – | – |
| Cc1ccc(S(=O)(=O)N/N=c2/sc3ccccc3n2C)cc1 | > 100 | > 100 | > 100 | > 100 | > 100 | > 100 | > 100 | > 100 | – | > 100 | > 100 | – | – | – | – | – | – | – | – | – |
| Cc1nc2sccn2c1C(=O)NNC(N)=S | > 100 | > 100 | > 100 | > 100 | > 100 | – | > 100 | – | – | – | – | – | – | – | – | – | – | – | – | – |
| CCOC(=O)C1C(c2ccc(Br)cc2)N(Cc2ccccc2)C(c2ccc(Br)cc2)C(C(=O)OC)S1(=O)=O (centres undefined) | > 100 | > 100 | > 100 | > 100 | > 100 | > 100 | > 100 | 57.3 | – | – | – | – | – | – | – | – | – | – | – | – |
| COc1c(OC2OC(CO)C(O)C(O)C2O)cc2c(c1OC)-c1ccc(OC)c(=O)cc1C(NC(C)=O)CC2 (centres undefined) | > 100 | > 100 | > 100 | > 100 | > 100 | > 100 | > 100 | > 84.4 | – | – | – | – | – | – | – | – | – | – | – | – |
| COc1cc2c(cc1OC)C1=C(C=O)c3ccc(OC)c(OC)c3C(O)N1CC2 (centres undefined) | > 100 | > 100 | 64.1 | > 100 | – | > 100 | > 100 | 38.6 | – | > 100 | 57.9 | > 100 | – | – | – | – | – | – | – | – |
| O=c1[nH]ncc2[nH]c3c(c12)CCc1ccccc1-3 | > 100 | > 100 | 30.3 | > 100 | > 100 | > 100 | > 100 | 76.1 | – | 59.2 | 98.9 | – | – | – | – | – | – | – | – | – |
| CC1CC(c2ccccc2)=Nc2ccccc2S1 (centres undefined) | – | > 100 | > 100 | > 100 | > 100 | > 100 | > 100 | > 100 | – | – | – | – | – | – | – | – | – | – | – | – |
| O=S(Nc1ccccc1)c1ccc(Cl)cc1 (centres undefined) | > 100 | > 100 | > 100 | 59.9 | > 100 | > 100 | > 100 | – | – | > 100 | > 100 | > 100 | – | – | – | – | – | – | – | – |
| O=C(Nc1ccc(-n2cc(-c3ccncc3)c(-c3ccc(O)c(Cl)c3)n2)cc1)Nc1cc(C(F)(F)F)cc(C(F)(F)F)c1 | – | 19.2 | 7.83 | 11.7 | 23.7 | 10.7 | 6.56 | 12.6 | 2.62 | 7.41 | 10.7 | – | 4.06 | 1.94 | 3.3 | 3.73 | 2.92 | 2.08 | 2.07 | 3.28 |
| Clc1[nH]nc2ccccc12 | > 100 | > 100 | > 100 | > 100 | – | > 100 | > 100 | > 100 | – | > 100 | > 100 | > 100 | – | – | – | – | – | – | – | – |
| COc1ccc2oc(=O)c(-c3cc4c(c(C)n3)c(=O)oc3ccc(OC)cc34)cc2c1 | 4.34 | > 100 | > 100 | > 100 | > 100 | – | > 100 | > 100 | – | 83.5 | > 100 | > 100 | – | – | – | – | – | – | – | – |
| COCOC1CCCC[C@@]1(OCCOCCO[C@@]1(c2ccccc2)CCCC[C@H]1OCOC)c1ccccc1 (some centres undefined) | > 100 | > 100 | > 100 | > 100 | > 100 | > 100 | > 100 | 84.3 | – | – | – | – | – | – | – | – | – | – | – | – |
| CC(C)C(NCc1c2ccccc2[n+](C)c2ccccc12)C(=O)O (centres undefined) | 15.6 | – | 10.6 | 18.7 | 17.3 | 20.7 | 20.5 | 18 | – | – | – | – | – | – | – | – | – | – | – | – |
| Cn1c(CO)ccc1-c1ccc(-c2ccc(CO)[se]2)[se]1 | > 76 | > 21 | 9.23 | > 64.1 | 41.2 | 3.67 | > 100 | > 100 | – | > 100 | > 100 | – | – | – | – | – | – | – | – | – |
| CN(Cc1cnc2nc(N)nc(N)c2n1)c1ccc(C(=O)NC(CCC(=O)O)C(=O)O)c2ccccc12 (centres undefined) | > 1000 | > 1000 | – | > 1000 | > 1000 | > 1000 | > 1000 | – | – | > 1000 | > 1000 | > 1000 | – | > 1000 | – | – | > 1000 | – | > 85.6 | – |
| C/C(CCN(C)C)=N/O | 13.2 | 7.14 | 15.8 | 25.5 | 16.3 | – | 81.5 | 33 | – | – | – | – | – | – | – | – | – | – | – | – |
| Cc1nc(C(=Nc2ccc(Br)cc2)Nn2cnnc2)no1 | > 100 | > 100 | > 100 | > 100 | – | > 100 | > 100 | > 100 | – | > 100 | > 100 | > 100 | – | – | – | – | – | – | – | – |
| CCOC(=O)CNC(=O)c1[nH]cnc1/N=N/N(C)C | > 100 | > 100 | > 100 | > 100 | > 100 | > 100 | > 100 | > 100 | – | – | – | – | – | – | – | – | – | – | – | – |
| NCCCNc1nc2ccccc2c2c(=O)c3cc(Cl)ccc3sc12 | – | – | 3.1 | – | – | – | – | 2.79 | 1.63 | 5.24 | – | – | – | 2.01 | – | – | – | – | 1.4 | – |
| CC(C)(NO)/C(=N\O)c1ccccc1 | > 10 | > 10 | > 10 | > 10 | – | > 10 | > 10 | – | – | – | > 10 | > 10 | – | – | – | – | – | – | – | – |
